Reference: patent EP0041021A2, “Cyclopropane carboxylic acid derivatives, their preparation, their use against parasites in plants and animals, their compositions and their intermediates” (ROUSSEL-UCLAF, priority 1980, dated 1981)

Assays:
mouche domestique = test: Knock-down activity on housefly, direct spray in Kearns and March cylinder; type: in vivo; settings: acetone (5%) + Isopar L
Method: Exemple 4 : Etude de l'activité de choc sur mouche domestique.
Les insectes tests sont des mouches domestiques femelles âgées de 4 à 5 jours. On opère par pulvérisation directe en cylindre de Kearns et March en utilisant comme solvant un mélange d'acétone (5%) et d'Isopar L (solvant pétrolier) (quantité de solvant utilisée 2 ml en une seconde). On utilise 50 insectes par dose. On effectue les contrôles toutes les minutes jusqu'à 10 minutes, puis à 15 minutes et l'on détermine le KT 50 par les méthodes habituelles.

moustiques Culex pipiens = test: Insecticidal activity on Culex pipiens mosquitoes, fumigant coil; type: in vivo; settings: fumigant coil, 0,60% active ingredient by weight of coil
Method: Exemple 6 : Etude de l'activité insecticide. sur moustiques Culex pipiens, du composé ce l'exemple 1 utilisé sous forme de serpentin fumigène.
Des supports neutres de serpentins fumigènes sont imprégnés de matière active en solution dans l'acétone. On lâche dans un cylindre fermé, en verre, de 13,50 dm3, 20 moustiques femelles agées de 4 à 5 jours et intrcduit, pendant 2 minutes, un serpentin fumigène se consumant à une extrémité. On effectue le contrôle de knock-down toutes les minutes et arrête 1.essai 5 minutes après que tous les insectes aient été abattus.

With `C=CCC1=C(C)[C@@H](OC(=O)[C@@H]2[C@H](/C=C\C(=O)OC)C2(C)C)CC1=O` [Exemple 1, (R cis ΔZ) 2,2-diméthl-3/ 3-méthoxy-oxo-1-propenyl/cyclopropane carboxylatede (1S) 2-méthyl-4-oxo 3-(2-propenyl)-2-cyclopenten-1-yle] the “KT 50” value (mouche domestique; concentration 0,5 g/litre) was 1,26 mn, the “KT 50” value (mouche domestique; concentration 0,25 g/litre) was 2,02 mn and the “effet létal” value (moustiques Culex pipiens) was 98,3%. For the same compound, the “ET 50” value (moustiques Culex pipiens; 20 female mosquitoes, 13,50 dm3 cylinder) was 5,42 mn.
